Data from patent publication US20240228535A1 (priority 2022, published 2024).

Target: SARS2 coronavirus 3CL protease (Severe acute respiratory syndrome coronavirus 2, UniProt P0DTD1)
Assay: biochemical
Conditions: 5 nM enzyme, 30 min pre-incubation with compound, 15 μM peptide substrate, 4 h at room temperature; read-out: FRET Potency (nM); IC50 values in the SARS2 3CLPro FRET assay

Compound	IC50 [nM]
CNC(=O)C(=O)[C@H](C[C@@H]1C[C@@H](C)NC1=O)NC(=O)c1cc(Cl)ccc1NC(=O)C(C)c1ccc(C(F)(F)F)nc1 (single isomer, unassigned) [Example 229]	33.5
C[C@@H]1C[C@@H](C[C@H](NC(=O)c2cc(Cl)ccc2NC(=O)[C@@H]2CN(C)C(=O)N2C)C(=O)C(=O)NC2CC2)C(=O)N1 [Example 212, (4S)-N-[4-chloro-2-[[(1S)-3-(cyclopropylamino)-1-[[(3S,5R)-5-methyl-2-oxo-pyrrolidin-3-yl]methyl]-2,3-dioxo-propyl]carbamoyl]phenyl]-1,3-dimethyl-2-oxo-imidazolidine-4-carboxamide]	5.6
O=C(NC1CC1)C(=O)[C@H](C[C@@H]1CCNC1=O)NC(=O)c1cc(Cl)ccc1NC(=O)C1CC(F)(F)C1 [Example 63, 5-chloro-N-[(1S)-3-(cyclopropylamino)-2,3-dioxo-1-[[(3S)-2-oxopyrrolidin-3-yl]methyl]propyl]-2-[(3,3-difluorocyclobutanecarbonyl)amino]benzamide]	7.3
C[C@@H]1C[C@@H](C[C@H](NC(=O)c2cc(C#N)ccc2NC(=O)c2cccc(F)c2)C(=O)C(=O)NC2CC2)C(=O)N1 [Example 32, 5-cyano-N-[(1S)-3-(cyclopropylamino)-1-[[(3S,5R)-5-methyl-2-oxo-pyrrolidin-3-yl]methyl]-2,3-dioxo-propyl]-2-[(3-fluorobenzoyl)amino] benzamide]	12.3
CNC(=O)C(=O)[C@H](C[C@@H]1C[C@@H](C)NC1=O)NC(=O)c1cc(Cl)ccc1NC(=O)C1CCCC(F)(F)C1 (single isomer, unassigned) [Example 198]	5.5
C[C@@H]1C[C@@H](C[C@H](NC(=O)c2cc(C#N)ccc2NC(=O)C23CC(C(F)(F)F)(C2)C3)C(=O)C(=O)NC2CC2)C(=O)N1 [Example 17]	31.1
CNC(=O)C(=O)[C@H](C[C@@H]1C[C@@H](C)NC1=O)NC(=O)c1cc(F)c(F)cc1NC(=O)OC [Example 120, methyl N-[4,5-difluoro-2-[[(1S)-3-(methylamino)-1-[[(3S,5R)-5-methyl-2-oxo-pyrrolidin-3-yl]methyl]-2,3-dioxo-propyl]carbamoyl]phenyl] carbamate]	11.1
C[C@@H]1C[C@@H](C[C@H](NC(=O)c2cc(Cl)ccc2NC(=O)[C@H]2CN(C)C(=O)O2)C(=O)C(=O)NC2CC2)C(=O)N1 [Example 205]	6.6
CNC(=O)C(=O)[C@H](C[C@@H]1C[C@@H](C)NC1=O)NC(=O)c1cc(Cl)ccc1NC(=O)[C@@H]1CN(C)C(=O)O1 [Example 182, (5S)-N-[4-chloro-2-[[(1S)-3-(methylamino)-1-[[(3S,5R)-5-methyl-2-oxo-pyrrolidin-3-yl]methyl]-2,3-dioxo-propyl]carbamoyl]phenyl]-3-methyl-2-oxo-oxazolidine-5-carboxamide]	6.7
C[C@@H]1C[C@@H](C[C@H](NC(=O)c2cc(Cl)cnc2NC(=O)C2(C(F)(F)F)CC2)C(=O)C(=O)NC2CC2)C(=O)N1 [Example 22, 5-chloro-N-[(1S)-3-(cyclopropylamino)-1-[[(3S,5R)-5-methyl-2-oxo-pyrrolidin-3-yl]methyl]-2,3-dioxo-propyl]-2-[[1-(trifluoromethyl)cyclopropane-carbonyl]amino]pyridine-3-carboxamide]	22.6
CNC(=O)C(=O)[C@H](C[C@@H]1CCNC1=O)NC(=O)c1cc(F)c(F)cc1NC(=O)OC1CC1 [Example 127, cyclopropyl N-[4,5-difluoro-2-[[(1S)-3-(methylamino)-2,3-dioxo-1-[[(3S)-2-oxopyrrolidin-3-yl]methyl]propyl]carbamoyl]phenyl]carbamate]	7.9
CNC(=O)C(=O)[C@H](C[C@@H]1C[C@@H](C(F)(F)F)NC1=O)NC(=O)c1cc(Cl)ccc1NC(=O)C1CC(F)(F)C1 [Example 41, 5-chloro-2-[(3,3-difluorocyclobutanecarbonyl)amino]-N-[(1S)-3-(methylamino)-2,3-dioxo-1-[[(3R,5S)-2-oxo-5-(trifluoromethyl)pyrrolidin-3-yl]methyl]propyl]benzamide]	9.9
CNC(=O)C(=O)[C@H](C[C@@H]1C[C@@H](C)NC1=O)NC(=O)c1cc(Cl)ccc1NC(=O)c1ccc(C(F)(F)F)cn1 [Example 55, N-[4-chloro-2-[[(1S)-3-(methylamino)-1-[[(3S,5R)-5-methyl-2-oxo-pyrrolidin-3-yl]methyl]-2,3-dioxo-propyl]carbamoyl]phenyl]-5-(trifluoromethyl)pyridine-2-carboxamide]	8.2
C[C@@H]1C[C@@H](C[C@H](NC(=O)c2cc(Cl)ccc2NC(=O)CCC(F)(F)F)C(=O)C(=O)NCc2nc[nH]n2)C(=O)N1 [Example 116, 5-chloro-N-[(1S)-1-[[(3S,5R)-5-methyl-2-oxo-pyrrolidin-3-yl]methyl]-2,3-dioxo-3-(1H-1,2,4-triazol-3-ylmethylamino)propyl]-2-(4,4,4-trifluorobutanoylamino) benzamide]	20.9
C[C@@H]1C[C@@H](C[C@H](NC(=O)c2cc(Cl)cc(F)c2NC(=O)CCC(F)(F)F)C(=O)C(=O)NC2CC2)C(=O)N1 [Example 213, 5-chloro-N-[(1S)-3-(cyclopropylamino)-1-[[(3S,5R)-5-methyl-2-oxo-pyrrolidin-3-yl]methyl]-2,3-dioxo-propyl]-3-fluoro-2-(4,4,4-trifluorobutanoylamino) benzamide]	15.4
C[C@@H]1C[C@@H](C[C@H](NC(=O)c2cc(Cl)ccc2NC(=O)C2CC2C(F)(F)F)C(=O)C(=O)NC2CC2)C(=O)N1 (stereo partly drawn) [Example 84, 5-chloro-N-[(1S)-3-(cyclopropylamino)-1-[[(3S,5R)-5-methyl-2-oxo-pyrrolidin-3-yl]methyl]-2,3-dioxo-propyl]-2-[[2-(trifluoromethyl)cyclopropane-carbonyl]amino]benzamide]	20.6
CNC(=O)C(=O)[C@H](C[C@@H]1C[C@@H](C)NC1=O)NC(=O)c1cc(Cl)ccc1NC(=O)OC1CC1(F)F (stereo partly drawn) [Example 172, (2,2-difluorocyclopropyl) N-[4-chloro-2-[(1S)-3-(methylamino)-1-[[(3S,5R)-5-methyl-2-oxo-pyrrolidin-3-yl]methyl]-2,3-dioxo-propyl]carbamoyl]phenyl] carbamate]	3.7
CNC(=O)C(=O)[C@H](C[C@@H]1C[C@@H](C)NC1=O)NC(=O)c1cc(C#N)ccc1NC(=O)OC1CC1 [Example 131, cyclopropyl N-[4-cyano-2-[[(1S)-3-(methylamino)-1-[[(3S,5R)-5-methyl-2-oxo-pyrrolidin-3-yl]methyl]-2,3-dioxo-propyl]carbamoyl]phenyl] carbamate]	36.5
C[C@@H]1C[C@@H](C[C@H](NC(=O)c2cc(Cl)ccc2NC(=O)C2CC23CC3)C(=O)C(=O)NC2CC2)C(=O)N1 (stereo partly drawn) [Example 83, N-[4-chloro-2-[[(1S)-3-(cyclopropylamino)-1-[[(3S,5R)-5-methyl-2-oxo-pyrrolidin-3-yl]methyl]-2,3-dioxo-propyl]carbamoyl]phenyl] spiro[2.2]pentane-2-carboxamide]	10.5
CNC(=O)C(=O)[C@H](C[C@@H]1C[C@@H](C)NC1=O)NC(=O)c1cc(Cl)ccc1NC(=O)C12CC(C(F)(F)F)(C1)C2 [Example 46, N-[4-chloro-2-[[(1S)-3-(methylamino)-1-[[(3S,5R)-5-methyl-2-oxo-pyrrolidin-3-yl]methyl]-2,3-dioxo-propyl]carbamoyl]phenyl]-3-(trifluoromethyl)bicyclo[1.1.1] pentane-1-carboxamide]	8.9
C[C@@H]1C[C@@H](C[C@H](NC(=O)c2cc(Cl)ccc2NC(=O)C23CC(F)(C2)C3)C(=O)C(=O)NC2CC2)C(=O)N1 [Example 54, N-[4-chloro-2-[[(1S)-3-(cyclopropylamino)-1-[[(3S,5R)-5-methyl-2-oxo-pyrrolidin-3-yl]methyl]-2,3-dioxo-propyl]carbamoyl]phenyl]-3-fluoro-bicyclo[1.1.1]pentane-1-carboxamide]	8.2
O=C(CCC(F)(F)F)Nc1ccc(Cl)cc1C(=O)N[C@@H](C[C@@H]1CCCNC1=O)C(=O)C(=O)NC1CC1 [Example 235, 5-chloro-N-[(1S)-3-(cyclopropylamino)-2,3-dioxo-1-[[(3S)-2-oxo-3-piperidyl]methyl]propyl]-2-(4,4,4-trifluorobutanoylamino) benzamide]	15.1
CNC(=O)C(=O)[C@H](C[C@@H]1CCNC1=O)NC(=O)c1cc(Cl)ccc1NC(=O)OC1CC1 [Example 11, cyclopropyl (4-chloro-2-(((S)-4-(methylamino)-3,4-dioxo-1-((S)-2-oxopyrrolidin-3-yl)butan-2-yl)carbamoyl)phenyl)carbamate]	4.8
CNC(=O)C(=O)[C@H](C[C@@H]1C[C@@H](C)NC1=O)NC(=O)c1cc(F)ccc1NC(=O)OC [Example 104, methyl N-[4-fluoro-2-[(1S)-3-(methylamino)-1-[[(3S,5R)-5-methyl-2-oxo-pyrrolidin-3-yl]methyl]-2,3-dioxo-propyl]carbamoyl]phenyl] carbamate]	15.3
C[C@@H]1C[C@@H](C[C@H](NC(=O)c2cc(Cl)ccc2NC(=O)C(C)(C)O)C(=O)C(=O)NC2CC2)C(=O)N1 [Example 165, 5-chloro-N-[(1S)-3-(cyclopropylamino)-1-[[(3S,5R)-5-methyl-2-oxo-pyrrolidin-3-yl]methyl]-2,3-dioxo-propyl]-2-[(2-hydroxy-2-methyl-propanoyl)amino]benzamide]	6.3
CO[C@@H](C)C(=O)Nc1ccc(Cl)cc1C(=O)N[C@@H](C[C@@H]1C[C@@H](C)NC1=O)C(=O)C(=O)NC1CC1 [Example 166, 5-chloro-N-[(1S)-3-(cyclopropylamino)-1-[[(3S,5R)-5-methyl-2-oxo-pyrrolidin-3-yl]methyl]-2,3-dioxo-propyl]-2-[[(2S)-2-methoxypropanoyl]amino] benzamide]	10.1
C[C@@H]1C[C@@H](C[C@H](NC(=O)c2cc(Cl)ccc2NC(=O)C2CC2)C(=O)C(=O)NC2CC2)C(=O)N1 [Example 145, 5-chloro-2-(cyclopropanecarbonylamino)-N-[(1S)-3-(cyclopropylamino)-1-[[(3S,5R)-5-methyl-2-oxo-pyrrolidin-3-yl]methyl]-2,3-dioxo-propyl]benzamide]	26.8
